Test results reported in patent US20210246140A1, “MODULATORS OF METABOTROPIC GLUTAMATE RECEPTOR 2” (The General Hospital Corporation, priority 2020, published 2021).

Legend:
[1] = Plasma protein binding assay (equilibrium dialysis, RED device); format: in vitro ADME; settings: rat plasma
Description: Disposable RED device inserts (product 90006) were from Thermos Scientific (Waltham, Mass.). Each insert was made of two side-by-side chambers separated by a vertical cylinder of dialysis membrane (MWCO 8,000) validated for minimal non-specific binding. A stock solution of the test compound in DMSO was spiked into the rat plasma to reach a concentration of 10 μM. 400 μL of sample solution was placed into the sample chamber of the RED device, and 600 μL of phosphate-buffered saline (PBS) was added to the buffer chamber of the RED device. Samples were prepared in triplicates. The plate was covered with aluminum sealing cover and incubated at 37° C. on an orbital shaker at approximately 200 rpm for 5 h. After incubation, 300 μL of post-dialysis samples from the buffer and sample chambers were transferred to different microcentrifuge tubes. To the buffer sample was added 300 μL of plasma, and an equal volume of buffer was added to the collected plasma sample. 600 μL of cold acetonitrile was added to the samples, and the samples were vortexed and incubated for 30 min on ice and then were centrifuged at 14000 rpm for 10 min. Supernatant was transferred to vial for HPLC analysis (XTerra™ MS C18 5μ, 2.1×250 mm column; Gradient elution from 5% to 90% B in 30 min; 0.1 M ammonium formate in water (A) and acetonitrile (B); UV 254 nm; 100 μL of injection volume). The percentage of the test bound compound was calculated as % Free=(Concentration in buffer chamber/Concentration in plasma chamber)×100%; % Bound=100%−% Free (FIG. 6).
(§1) The experimental lipophilicity was measured by using liquid-liquid partition between n-octanol and water (“shake-flask method”) [see ref. 54]. […] The plasma protein binding comprises compounds' binding to albumin, α1-acid glycoprotein and lipoproteins once delivered to the bloodstream. This property was evaluated for compounds 1 and 2 by equilibrium dialysis [see ref. 56], where two chambers were separated by a dialysis membrane (MWCO 8 kD). The plasma protein bindings of 1 and 2 are 87.2% and 88.7%, respectively (see FIGS. 20 and 6). Therefore, the high plasma free fraction of compounds 1 and 2 (>10%) would allow enough free drug concentration in blood stream to reach the brain targets.

[2] = Determination of Log P; format: physicochemical; settings: experimental lipophilicity
Description: Determination of Log P The Log P was determined using a reversed-phase HPLC method. First, seven reference compounds were examined to obtain the linear regression of the log P against the log of capacity factors by the expression: log Pow=a+b*log k. The Log P of these reference compounds was already been determined. The capacity factor k was calculated by the expression: k=(tR−t0)/t0. The retention time tR of test compound was determined on the HPLC (Agilent 1260 infinity II LC System, XTerra™ MS Cis 5μ 2.1×250 mm, methanol/water=75/25, 0.25 mL/min). The dead-time to was measured by using thiourea. The linear regression equation of the Log P against the log of capacity factors was generated in Excel: log Pow=3.049+2.429*log k, where R^2 was 0.9964. The retention time of compound 1, 2, and 7 was also determined on the HPLC under the same condition and each test was repeated three times (FIG. 5).
as §1

[3] = PAMPA-BBB (parallel artificial membrane permeation assay); settings: pH 7.4, 18 h
[4] = Solution stability in aqueous buffers at different pH; format: physicochemical; settings: buffer solutions at pH 5.0, 7.4 and 9.4, 37° C., 2 h
Description: The solution stability of 3 was examined in the aqueous buffers at different pH values. 50 μL of compound in DMSO (0.25 mM) was added to the sodium acetate-KCl—HCl buffer (950 μL, 20 mM, pH 5.0), phosphate buffer (950 μL, 20 mM, pH 7.4), and boric acid-KCl—NaOH buffer (950 μL, 20 mM, pH 9.4), respectively. The mixtures were incubated for 2 h at 37° C. and analyzed by HPLC (Phenomenex Luna® column, 5 μm C18, 100 Å, 250×4.6 mm, eluents: CH3CN/H2O in 0.1% formic acid).
The in vitro plasma and liver microsomal stability of 1 and 2 were studied by incubating the test compounds in rat serum and rat liver microsomes as well as NADPH cofactor, respectively, using previously published methods [see refs. 57, 58]. Diltiazem and ML128 (a mGluR4 PAM) [see refs. 59, 60] were used as co-assay QC controls for plasma and microsomal stability assays, respectively, to ensure that the assays were operating properly, and that the activity of the plasma and microsomes were consistent with established criteria. […] The solution stability of 1 was evaluated with buffer solutions at pH 5.0, 7.4 and 9.4, respectively (FIGS. 10 and 20) [see refs. 61].

[5] = Microsomal stability in rat liver microsomes; format: in vitro ADME
Description: Compound stability in rat liver microsomal was tested using a published method. [see refs. 57, 58] In a vial 1.5 μL of test compound (1 mM in DMSO stock solution) was mixed with 432 μL of PBS (50 mM, pH 7.4). The mixture was kept at 37° C. for 10 min before adding 13 μL of Sprague-Dawley rat liver microsomes (Sigma-Aldrich, No. M9066). The vial was vortexed and shaken at 37° C. for 5 min, followed by addition of 50 μL of NADPH (10 mM in PBS stock solution) to start the reaction. The mixture was incubated at 37° C. for 0, 5, 15, 30, 45 min, respectively, and quenched by addition of 250 μL of ice-cold acetonitrile and 3 μL of the internal standard (0.5 mM in DMSO). The quenched solutions were centrifuged at 10,000 g for 15 min. The supernatant was collected and quantitated by RP-HPLC (Phenomenex Luna® column 5 μC18, 100 Å, 250×4.6 mm; 0.7 mL/min, 15 min, Acetonitrile/water/0.1% FA). The procedure was repeated three times for each compound. Compound 1-OH was used as internal standard and compound ML128 served as positive control. The percentage of remaining intact test-compound was calculated by (peak area at the specific time point)/(peak area at 0 min)×100%. Each procedure was repeated three times (FIGS. 8 and 9). For FIG. 8, the natural logarithm (In) of peak area ratio (test compound peak area/internal standard peak area) was plotted against time and the gradient of the line was determined. Subsequently, the half-life (t1/2) min was calculated as 0.693/k, where the elimination rate constant (k) equals to negative gradient. V (μL/mg) was obtained as a ratio of volume of incubation (μL)/protein in the incubation (mg). Finally, the intrinsic clearance (CLint) (μL/min/mg protein) was calculated as V×0.693/t1/2.
The in vitro plasma and liver microsomal stability of 1 and 2 were studied by incubating the test compounds in rat serum and rat liver microsomes as well as NADPH cofactor, respectively, using previously published methods [see refs. 57, 58]. […] The solution stability of 1 was evaluated with buffer solutions at pH 5.0, 7.4 and 9.4, respectively (FIGS. 10 and 20) [see refs. 61].

[6] = target: T1, mGluR2 (Homo sapiens, UniProt Q14416); settings: calcium flux, Gα15 or Gα16 forced coupling; read-out: previously reported mGluR2 EC50; cited from earlier work
T1 construct: expressed in transfected cells
T1 sequence (Q14416 19-872): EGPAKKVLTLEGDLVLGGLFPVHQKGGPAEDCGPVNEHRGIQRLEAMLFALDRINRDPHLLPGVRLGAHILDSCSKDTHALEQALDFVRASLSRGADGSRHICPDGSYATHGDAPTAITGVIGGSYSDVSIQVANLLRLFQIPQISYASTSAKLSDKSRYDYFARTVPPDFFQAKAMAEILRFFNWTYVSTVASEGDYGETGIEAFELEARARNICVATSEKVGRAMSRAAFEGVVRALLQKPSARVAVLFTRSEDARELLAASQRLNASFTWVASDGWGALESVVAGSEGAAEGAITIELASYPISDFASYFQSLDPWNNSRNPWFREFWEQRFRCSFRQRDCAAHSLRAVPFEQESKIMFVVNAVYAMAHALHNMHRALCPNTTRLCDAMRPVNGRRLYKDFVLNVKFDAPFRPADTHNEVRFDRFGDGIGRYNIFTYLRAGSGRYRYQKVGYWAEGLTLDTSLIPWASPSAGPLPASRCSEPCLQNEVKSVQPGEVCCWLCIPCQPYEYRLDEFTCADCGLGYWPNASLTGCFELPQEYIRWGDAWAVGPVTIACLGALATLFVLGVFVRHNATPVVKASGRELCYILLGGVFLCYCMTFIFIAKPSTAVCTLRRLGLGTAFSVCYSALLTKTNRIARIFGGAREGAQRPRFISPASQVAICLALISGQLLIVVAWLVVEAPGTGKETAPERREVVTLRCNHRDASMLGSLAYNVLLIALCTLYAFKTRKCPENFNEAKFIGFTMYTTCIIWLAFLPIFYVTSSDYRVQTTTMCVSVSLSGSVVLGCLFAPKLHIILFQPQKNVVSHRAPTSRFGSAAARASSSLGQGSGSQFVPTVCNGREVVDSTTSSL

plasma protein binding ([1]; equilibrium dialysis, 10 μM): 87.2%
fraction unbound at 5 h, 10 μM ([1]; read-out: plasma free fraction): > 0.1
Log P [2]: 3.65
effective permeability Pe [3]: 9.2 ×10⁻⁶ cm/s
solution stability [4]: relatively stable
microsomal CLint at 3 µM ([5]; Sprague-Dawley, pH 7.4, rat liver microsomes, read-out: intrinsic clearance CLint): 17.9 µL/min/mg
microsomal stability ([5]; rat liver microsomes with NADPH, ML128 as positive control): reasonable microsomal stability
SMILES: COc1cc(C(F)(F)F)ccc1C1CCN(Cc2nc3ncccc3n2C)CC1 [Compound 1]
EC50 [6]: 13 nM
